Measured values from ChEMBL document CHEMBL1141564, “Meriolins (3-(pyrimidin-4-yl)-7-azaindoles): synthesis, kinase inhibitory activity, cellular effects, and structure of a CDK2/cyclin A/meriolin complex” (J Med Chem, 2008).

Tests used:
[1] = target: Cyclin-dependent kinase 5/CDK5 activator 1 (Homo sapiens, UniProt Q00535); assay: Inhibition of recombinant GST-CDK5/p25 expressed in Escherichia coli
[2] = Inhibition of starfish oocyte CDK1/cyclin B; set-up: species or system Marthasterias glacialis
SH-SY5Y = assay: cells; conditions: Homo sapiens, 48 h
Description: Survival of human SHSY5Y cells after 48 hrs by MTS reduction assay

KMS-11 = assay: cells; conditions: Homo sapiens, KMS-11, 48 h
Description: Survival of human KMS11 cells after 48 hrs by neutral red reduction assay

GBM = assay: cells; conditions: Homo sapiens, 48 h
Description: Survival of human GBM cells after 48 hrs by neutral red reduction assay

HEK293 = assay: cells; conditions: Homo sapiens, HEK293, 48 h
Description: Survival of human HEK293 cells after 48 hrs by MTS reduction assay

[3] = Inhibition of pig CK1delta/CK1epsilon; set-up: species or system Sus scrofa
[4] = target: Cyclin-dependent kinase 2/cyclin A (Homo sapiens, UniProt P24941); assay: Inhibition of human recombinant CDK2/cyclin A expressed in insect cells
LS174T = assay: cells; conditions: Homo sapiens, 48 h
Description: Survival of human LS174T cells after 48 hrs by MTS reduction assay

CDK9/cyclin T1 = CDK9/cyclin T1 (Homo sapiens, UniProt P50750); assay: Inhibition of human recombinant CDK9/cyclin T expressed in insect cells
Sequence of CDK9/cyclin T1 (O60563 whole entry): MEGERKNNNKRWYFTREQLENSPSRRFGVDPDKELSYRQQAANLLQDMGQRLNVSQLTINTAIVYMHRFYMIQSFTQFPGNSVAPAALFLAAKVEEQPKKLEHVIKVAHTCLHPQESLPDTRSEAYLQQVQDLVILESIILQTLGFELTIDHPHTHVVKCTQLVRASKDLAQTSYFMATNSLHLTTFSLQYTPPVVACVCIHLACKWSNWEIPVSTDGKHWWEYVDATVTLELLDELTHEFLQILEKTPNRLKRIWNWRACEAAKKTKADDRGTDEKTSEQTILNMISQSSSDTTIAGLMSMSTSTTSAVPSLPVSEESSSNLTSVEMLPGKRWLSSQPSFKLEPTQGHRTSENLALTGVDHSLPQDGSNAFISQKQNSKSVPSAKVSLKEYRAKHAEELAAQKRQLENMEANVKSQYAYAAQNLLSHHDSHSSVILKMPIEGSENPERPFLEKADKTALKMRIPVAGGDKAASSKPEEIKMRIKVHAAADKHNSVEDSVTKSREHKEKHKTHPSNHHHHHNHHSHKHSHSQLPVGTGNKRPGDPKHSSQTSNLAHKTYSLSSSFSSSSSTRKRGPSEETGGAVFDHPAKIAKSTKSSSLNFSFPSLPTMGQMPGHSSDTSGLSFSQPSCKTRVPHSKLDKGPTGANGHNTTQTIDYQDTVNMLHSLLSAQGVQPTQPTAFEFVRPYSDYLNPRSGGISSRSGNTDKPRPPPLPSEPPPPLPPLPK
Sequence of CDK9/cyclin T1 (P50750 whole entry): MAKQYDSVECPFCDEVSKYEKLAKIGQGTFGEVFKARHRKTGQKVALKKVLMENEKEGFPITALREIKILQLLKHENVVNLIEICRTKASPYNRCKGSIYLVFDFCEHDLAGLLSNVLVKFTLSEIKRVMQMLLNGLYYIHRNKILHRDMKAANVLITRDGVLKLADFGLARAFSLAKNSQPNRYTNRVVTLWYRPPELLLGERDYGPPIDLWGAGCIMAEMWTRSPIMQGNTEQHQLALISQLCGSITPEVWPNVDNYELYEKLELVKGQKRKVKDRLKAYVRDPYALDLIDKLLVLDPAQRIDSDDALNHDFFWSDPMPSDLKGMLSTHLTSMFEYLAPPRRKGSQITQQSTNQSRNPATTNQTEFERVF

[5] = Inhibition of pig GSK-3-alpha/GSK-3beta; set-up: species or system Sus scrofa
[6] = target: Dual specificity tyrosine-phosphorylation-regulated kinase 1A (Rattus norvegicus, UniProt Q63470); assay: Inhibition of rat recombinant GST-DYRK1A expressed in Escherichia coli
HCT-116 [7] = assay: Antiproliferative activity against human HCT116 cells after 5 days; assay type: functional, cell-based; conditions: HCT-116, 120 h
HCT-116 [8] = assay: Antiproliferative activity against human HCT116 cells assessed as reduction in diameter of spheroids at 1 uM after 5 days; assay type: functional

Sequence of Cyclin-dependent kinase 5/CDK5 activator 1 (Q00535 whole entry): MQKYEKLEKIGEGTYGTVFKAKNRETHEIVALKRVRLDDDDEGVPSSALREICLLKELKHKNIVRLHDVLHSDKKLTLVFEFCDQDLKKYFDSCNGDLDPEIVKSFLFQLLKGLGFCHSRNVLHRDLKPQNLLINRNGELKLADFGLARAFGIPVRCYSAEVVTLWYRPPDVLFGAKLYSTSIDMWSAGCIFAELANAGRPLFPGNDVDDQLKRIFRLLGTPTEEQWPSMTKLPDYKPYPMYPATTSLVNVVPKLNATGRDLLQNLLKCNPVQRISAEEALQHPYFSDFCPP
Sequence of Cyclin-dependent kinase 5/CDK5 activator 1 (Q15078 whole entry, further chain): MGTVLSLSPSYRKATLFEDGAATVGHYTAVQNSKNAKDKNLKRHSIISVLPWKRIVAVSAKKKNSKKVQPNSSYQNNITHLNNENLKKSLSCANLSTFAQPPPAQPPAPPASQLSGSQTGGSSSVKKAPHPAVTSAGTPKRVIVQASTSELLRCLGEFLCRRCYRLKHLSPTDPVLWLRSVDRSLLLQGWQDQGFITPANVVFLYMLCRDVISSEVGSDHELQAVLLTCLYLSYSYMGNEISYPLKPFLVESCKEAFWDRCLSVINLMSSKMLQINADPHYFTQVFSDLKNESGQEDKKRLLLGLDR

SMILES	IC50 [1]	IC50 [2]	IC50 (SH-SY5Y)	IC50 (KMS-11)	IC50 (GBM)	IC50 (HEK293)	IC50 [3]	IC50 [4]	IC50 (LS174T)	IC50 (CDK9/cyclin T1)	IC50 [5]	IC50 [6]	IC50 (HCT-116 [7])	Activity (HCT-116 [8])
COc1ccnc2[nH]cc(-c3ccnc(SC)n3)c12	2300 nM	1800 nM	> 100000 nM	> 20000 nM	> 20000 nM	66000 nM	600 nM	2100 nM	> 30000 nM	1100 nM	7000 nM			
Nc1nccc(-c2c[nH]c3nc(Br)ccc23)n1	680 nM	2200 nM	43000 nM	> 15000 nM	> 20000 nM	> 100000 nM		1300 nM	> 30000 nM	1000 nM	30000 nM	300 nM		
Nc1nccc(-c2c[nH]c3nccc(Cl)c23)n1	230 nM	240 nM	1920 nM	7500 nM	10000 nM	10800 nM	3000 nM	60 nM	> 10000 nM	50 nM	2000 nM			
COc1ccnc2[nH]cc(-c3ccncn3)c12	1300 nM		10200 nM	10000 nM	10000 nM	35500 nM	600 nM	800 nM	10000 nM	220 nM	1100 nM			
Oc1ccnc2[nH]cc(-c3ccncn3)c12	700 nM		28000 nM	> 15000 nM	> 20000 nM	84000 nM		700 nM	23500 nM	250 nM	1800 nM			
Nc1nccc(-c2c[nH]c3ncccc23)n1 [MERIOLIN 1]	510 nM		670 nM	1270 nM	1380 nM	2200 nM			1500 nM	26 nM				
Nc1nccc(-c2c[nH]c3nccc(O)c23)n1 [MERIOLIN 2]	50 nM	57 nM	410 nM	600 nM	1210 nM	960 nM		18 nM	1060 nM	18 nM	400 nM			
COc1ccnc2[nH]cc(-c3ccnc(N)n3)c12 [MERIOLIN 3]	170 nM	170 nM	73 nM	120 nM	140 nM	240 nM	200 nM	11 nM	130 nM	6 nM	230 nM		63 nM	720 um
CCOc1ccnc2[nH]cc(-c3ccnc(N)n3)c12 [MERIOLIN 4]	5 nM	10 nM	81 nM	60 nM	130 nM	220 nM	100 nM	7 nM	100 nM	7 nM	30 nM			
CCCOc1ccnc2[nH]cc(-c3ccnc(N)n3)c12 [MERIOLIN 5]	3 nM	7 nM	26 nM	40 nM	80 nM	85 nM	200 nM	3 nM	47 nM	5.6 nM	25 nM			
CC(C)Oc1ccnc2[nH]cc(-c3ccnc(N)n3)c12 [MERIOLIN 6]	3 nM	8 nM			80 nM	89 nM	140 nM		60 nM	5.6 nM	21 nM			
COCCOc1ccnc2[nH]cc(-c3ccnc(N)n3)c12 [MERIOLIN 7]	14000 nM	35000 nM	> 100000 nM	> 20000 nM	> 20000 nM	> 100000 nM	100000 nM	> 10000 nM	> 30000 nM	5300 nM	63000 nM	> 10000 nM		
Cn1cc(-c2ccnc(N)n2)c2c(O)ccnc21 [MERIOLIN 8]	5500 nM		> 30000 nM	> 20000 nM	> 20000 nM	> 30000 nM	2300 nM	1800 nM	> 30000 nM	1200 nM	4600 nM			
COc1ccnc2c1c(-c1ccnc(N)n1)cn2C [MERIOLIN 9]	73000 nM	25000 nM												
